# Test results: patent publication US20230265151A1, “GIP/GLP1 CO-AGONIST COMPOUNDS” (priority 2020, published 2023)
# Read-outs that look alike come from different tables or passages of the source.
# What was measured:
# Format in all cases: cell-based
# [1] = molecular target: T1, hGCGR (Homo sapiens, UniProt P47871); assay: Functional cAMP formation (HTRF) in HEK-293 clonal cells expressing hGCGR, 0.1% bovine casein, without or with 1.0% human serum albumin; conditions: geometric mean
# T1 construct: expressed in transfected cells
# T1 sequence (P47871 26-477): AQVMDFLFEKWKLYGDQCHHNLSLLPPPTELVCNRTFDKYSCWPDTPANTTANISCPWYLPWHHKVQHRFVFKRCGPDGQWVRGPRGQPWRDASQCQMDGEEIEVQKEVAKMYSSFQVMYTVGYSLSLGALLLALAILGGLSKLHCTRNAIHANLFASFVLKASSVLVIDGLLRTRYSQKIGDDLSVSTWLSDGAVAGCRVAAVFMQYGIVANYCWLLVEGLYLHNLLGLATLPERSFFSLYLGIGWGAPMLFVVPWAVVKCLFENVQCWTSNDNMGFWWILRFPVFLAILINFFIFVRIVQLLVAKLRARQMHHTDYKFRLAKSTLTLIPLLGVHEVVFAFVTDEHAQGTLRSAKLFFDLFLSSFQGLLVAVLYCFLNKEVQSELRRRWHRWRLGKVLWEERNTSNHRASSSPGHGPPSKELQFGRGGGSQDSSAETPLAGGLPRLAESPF
# Procedure, shortened: (§1)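 Cells were stimulated with peptide for 30 min at 37° C, then lysed in buffer carrying cAMP-d2 and anti-cAMP Eu3+-cryptate for a competitive HTRF read after at least 60 min at room temperature. The 665/620 nm ratio was converted to nM cAMP against a standard curve.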
# [2] = molecular target: hGLP-1R (Homo sapiens, UniProt P43220); assay: Functional cAMP formation (HTRF) in HEK-293 clonal cells expressing hGLP-1R, 0.1% bovine casein, without or with 1.0% human serum albumin; design: expressed in transfected cells; conditions: for EC50: geometric mean
# Chain of hGLP-1R (P43220 24-463): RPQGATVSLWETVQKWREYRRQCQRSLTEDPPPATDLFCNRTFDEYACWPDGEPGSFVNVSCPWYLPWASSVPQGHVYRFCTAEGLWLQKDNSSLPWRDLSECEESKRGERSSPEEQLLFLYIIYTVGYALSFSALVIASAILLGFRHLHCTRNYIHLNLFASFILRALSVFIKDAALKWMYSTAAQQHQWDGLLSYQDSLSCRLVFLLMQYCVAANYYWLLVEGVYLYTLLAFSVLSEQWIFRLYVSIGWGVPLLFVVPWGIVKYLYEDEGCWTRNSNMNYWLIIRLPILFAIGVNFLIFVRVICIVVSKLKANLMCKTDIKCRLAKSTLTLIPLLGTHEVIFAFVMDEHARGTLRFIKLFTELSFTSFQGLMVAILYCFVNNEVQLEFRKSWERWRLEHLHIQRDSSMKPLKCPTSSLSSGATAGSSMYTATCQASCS
# Procedure, shortened: as §1
# [3] = molecular target: T2, hGIPR (Homo sapiens, UniProt P48546); assay: Functional cAMP formation (HTRF) in HEK-293 clonal cells expressing hGIPR, 0.1% bovine casein, without or with 1.0% human serum albumin; conditions: for EC50: geometric mean
# T2 construct: expressed in transfected cells
# T2 sequence (P48546 22-466): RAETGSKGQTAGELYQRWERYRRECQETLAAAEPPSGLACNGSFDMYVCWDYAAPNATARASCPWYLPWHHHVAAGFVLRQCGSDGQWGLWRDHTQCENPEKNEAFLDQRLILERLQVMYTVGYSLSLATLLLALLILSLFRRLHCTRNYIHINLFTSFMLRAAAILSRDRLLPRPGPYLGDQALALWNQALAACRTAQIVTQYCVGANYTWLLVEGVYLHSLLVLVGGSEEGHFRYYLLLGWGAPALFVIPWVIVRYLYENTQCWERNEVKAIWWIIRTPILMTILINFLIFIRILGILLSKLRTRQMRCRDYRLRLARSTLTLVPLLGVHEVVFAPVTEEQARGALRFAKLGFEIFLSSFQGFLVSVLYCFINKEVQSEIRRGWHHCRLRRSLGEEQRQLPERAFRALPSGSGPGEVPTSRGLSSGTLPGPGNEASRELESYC
# Procedure, shortened: as §1
# [4] = 0.1% bovine casein and 1.0% human serum albumin, 37° C., read-out: hGCGR EC50, nM (SEM, n)
# [5] = cAMP, incubated at 37° C., 0.1% bovine casein (no human serum albumin), read-out: hGCGR EC50, nM (SEM, n)
# [6] = 0.1% bovine casein and 1.0% human serum albumin, 37° C., read-out: hGLP-1R EC50, nM (SEM, n)
# [7] = cAMP, incubated at 37° C., 0.1% bovine casein (no human serum albumin), read-out: hGLP-1R EC50, nM (SEM, n)
# [8] = 0.1% bovine casein and 1.0% human serum albumin, 37° C., read-out: hGIPR EC50, nM (SEM, n)
# [9] = HEK293, 0.1% bovine casein and 1.0% human serum albumin, 37° C., percent of maximal response to GIP(1-42)NH2, read-out: hGIPR Emax, % ± SEM
# [10] = HEK293, percent of maximal response to GIP(1-42)NH2, 37° C., 0.1% bovine casein, arithmetic mean, read-out: hGIPR Emax, % ± SEM
# [11] = cAMP, incubated at 37° C., 0.1% bovine casein (no human serum albumin), read-out: hGIPR EC50, nM (SEM, n)
# [12] = hGCGR EC50, nM (SEM, n), cAMP, incubated at 37° C., 0.1% bovine casein (no human serum albumin)
# [13] = hGLP-1R EC50, nM (SEM, n), cAMP, incubated at 37° C., 0.1% bovine casein (no human serum albumin)
# [14] = hGIPR EC50, nM (SEM, n), cAMP, incubated at 37° C., 0.1% bovine casein (no human serum albumin)
Compound,"EC50 [1, 4] [nM]","EC50 [1, 5] [nM]","EC50 [2, 6] [nM]","Emax ([2]; HEK293, 0.1% bovine casein and 1.0% human serum albumin, 37° C., percent of maximal response to GLP-1(7-36)NH2, read-out: hGLP-1R Emax, % ± SEM) [%]","EC50 [2, 7] [nM]","EC50 [3, 8] [nM]","Emax [3, 9] [%]","Emax [3, 10] [%]","EC50 [3, 11] [nM]","EC50 [1, 12] [nM]","EC50 [2, 13] [nM]","Emax ([3]; HEK293, read-out: hGIPR Emax, % ± SEM, percent of maximal response to GIP(1-42)NH2, 37° C., 0.1% bovine casein, arithmetic mean) [%]","EC50 [3, 14] [nM]"
CC[C@H](C)[C@H](NC(=O)[C@H](CC(C)C)NC(=O)[C@](C)(Cc1ccc(O)cc1)NC(=O)[C@@H](CCC(=O)O)NC(=O)[C@@H](NC(=O)[C@H](Cc1ccccc1)NC(=O)[C@H](CCCCNC(=O)COCCOCCNC(=O)COCCOCCNC(=O)CC[C@H](NC(=O)CCCc1ccc(C(C)(C)C)cc1)C(=O)O)NC(=O)C(C)(C)NC(=O)[C@H](CCC(N)=O)NC(=O)[C@H](C)NC(=O)[C@H](CCCCNC(=O)COCCOCCNC(=O)COCCOCCNC(=O)CC[C@H](NC(=O)CCCc1ccc(C(C)(C)C)cc1)C(=O)O)NC(=O)[C@H](CCCN)NC(=O)[C@H](CC(=O)O)NC(=O)[C@H](CC(C)C)NC(=O)[C@](C)(CC(C)C)NC(=O)[C@@H](NC(=O)[C@H](CO)NC(=O)[C@H](Cc1ccncc1)NC(=O)[C@H](CC(=O)O)NC(=O)[C@H](CO)NC(=O)[C@@H](NC(=O)[C@](C)(Cc1ccccc1F)NC(=O)[C@@H](NC(=O)CNC(=O)[C@H](CCC(=O)O)NC(=O)C(C)(C)NC(=O)[C@@H](N)Cc1ccc(O)cc1)[C@@H](C)O)[C@@H](C)O)[C@@H](C)CC)[C@@H](C)CC)C(=O)N[C@@H](CCC(=O)O)C(=O)NCC(=O)NCC(=O)N1CCC[C@H]1C(=O)N[C@@H](CO)C(=O)N[C@@H](CO)C(=O)NCC(=O)N[C@@H](C)C(=O)N1CCC[C@H]1C(=O)N1CCC[C@H]1C(=O)N1CCC[C@H]1C(=O)N[C@@H](CO)C(N)=O [Example 131],> 9950,> 9950,1.04,112 ± 1.76,0.19,0.0581,90.4 ± 1.62,96.4 ± 1.95,0.0156,–,–,–,–
CC[C@H](C)[C@H](NC(=O)[C@H](CC(C)C)NC(=O)[C@](C)(Cc1ccc(O)cc1)NC(=O)[C@H](CCCCNC(=O)COCCOCCNC(=O)COCCOCCNC(=O)CC[C@H](NC(=O)CCCc1ccc(C(C)(C)C)cc1)C(=O)O)NC(=O)[C@@H](NC(=O)[C@H](Cc1ccccc1)NC(=O)[C@H](CCC(=O)O)NC(=O)C(C)(C)NC(=O)[C@H](CCC(N)=O)NC(=O)[C@H](C)NC(=O)[C@H](CCCCNC(=O)COCCOCCNC(=O)COCCOCCNC(=O)CC[C@H](NC(=O)CCCc1ccc(C(C)(C)C)cc1)C(=O)O)NC(=O)[C@H](CCCN)NC(=O)[C@H](CC(=O)O)NC(=O)[C@H](CC(C)C)NC(=O)[C@](C)(CC(C)C)NC(=O)[C@@H](NC(=O)[C@H](CO)NC(=O)[C@H](Cc1ccncc1)NC(=O)[C@H](CC(=O)O)NC(=O)[C@H](CO)NC(=O)[C@@H](NC(=O)[C@](C)(Cc1ccccc1F)NC(=O)[C@@H](NC(=O)CNC(=O)[C@H](CCC(=O)O)NC(=O)C(C)(C)NC(=O)[C@@H](N)Cc1ccc(O)cc1)[C@@H](C)O)[C@@H](C)O)[C@@H](C)CC)[C@@H](C)CC)C(=O)N[C@@H](CCC(=O)O)C(=O)NCC(=O)NCC(=O)N1CCC[C@H]1C(=O)N[C@@H](CO)C(=O)N[C@@H](CO)C(=O)NCC(=O)N[C@@H](C)C(=O)N1CCC[C@H]1C(=O)N1CCC[C@H]1C(=O)N1CCC[C@H]1C(=O)N[C@@H](CO)C(N)=O [Example 132],–,–,–,–,–,–,–,–,–,> 9950,0.182,98.3 ± 1.68,0.0208
CC[C@H](C)[C@H](NC(=O)[C@H](CC(C)C)NC(=O)[C@](C)(Cc1ccc(O)cc1)NC(=O)[C@@H](CCC(=O)O)NC(=O)[C@@H](NC(=O)[C@H](Cc1ccccc1)NC(=O)[C@H](CCC(=O)O)NC(=O)C(C)(C)NC(=O)[C@H](CCC(N)=O)NC(=O)[C@H](C)NC(=O)[C@H](CCCCNC(=O)COCCOCCNC(=O)COCCOCCNC(=O)CC[C@H](NC(=O)CCCc1ccc(C(C)(C)C)cc1)C(=O)O)NC(=O)[C@H](CCCN)NC(=O)[C@H](CC(=O)O)NC(=O)[C@H](CC(C)C)NC(=O)[C@](C)(CC(C)C)NC(=O)[C@@H](NC(=O)[C@H](CO)NC(=O)[C@H](Cc1ccncc1)NC(=O)[C@H](CC(=O)O)NC(=O)[C@H](CO)NC(=O)[C@@H](NC(=O)[C@](C)(Cc1ccccc1F)NC(=O)[C@@H](NC(=O)CNC(=O)[C@H](CCC(=O)O)NC(=O)C(C)(C)NC(=O)[C@@H](N)Cc1ccc(O)cc1)[C@@H](C)O)[C@@H](C)O)[C@@H](C)CC)[C@@H](C)CC)C(=O)N[C@@H](CCCCNC(=O)COCCOCCNC(=O)COCCOCCNC(=O)CC[C@H](NC(=O)CCCc1ccc(C(C)(C)C)cc1)C(=O)O)C(=O)NCC(=O)NCC(=O)N1CCC[C@H]1C(=O)N[C@@H](CO)C(=O)N[C@@H](CO)C(=O)NCC(=O)N[C@@H](C)C(=O)N1CCC[C@H]1C(=O)N1CCC[C@H]1C(=O)N1CCC[C@H]1C(=O)N[C@@H](CO)C(N)=O [Example 133],> 9950,> 9950,1.17,–,–,0.0695,89.1 ± 4.64,–,0.018,–,–,–,–
CC[C@H](C)[C@H](NC(=O)[C@H](CC(C)C)NC(=O)[C@](C)(Cc1ccc(O)cc1)NC(=O)[C@@H](CCC(=O)O)NC(=O)[C@@H](NC(=O)[C@H](Cc1ccccc1)NC(=O)[C@H](CCC(=O)O)NC(=O)C(C)(C)NC(=O)[C@H](CCC(N)=O)NC(=O)[C@H](C)NC(=O)[C@H](CCCCNC(=O)COCCOCCNC(=O)COCCOCCNC(=O)CC[C@H](NC(=O)CCCc1ccc(C(C)(C)C)cc1)C(=O)O)NC(=O)[C@H](CCCN)NC(=O)[C@H](CC(=O)O)NC(=O)[C@H](CC(C)C)NC(=O)[C@](C)(CC(C)C)NC(=O)[C@@H](NC(=O)[C@H](CO)NC(=O)[C@H](Cc1ccncc1)NC(=O)[C@H](CC(=O)O)NC(=O)[C@H](CO)NC(=O)[C@@H](NC(=O)[C@](C)(Cc1ccccc1F)NC(=O)[C@@H](NC(=O)CNC(=O)[C@H](CCC(=O)O)NC(=O)C(C)(C)NC(=O)[C@@H](N)Cc1ccc(O)cc1)[C@@H](C)O)[C@@H](C)O)[C@@H](C)CC)[C@@H](C)CC)C(=O)N[C@@H](CCC(=O)O)C(=O)NCC(=O)NCC(=O)N1CCC[C@H]1C(=O)N[C@@H](CO)C(=O)N[C@@H](CO)C(=O)NCC(=O)N[C@@H](C)C(=O)N1CCC[C@H]1C(=O)N1CCC[C@H]1C(=O)N1CCC[C@H]1C(=O)N[C@@H](CO)C(=O)N[C@@H](CCCCNC(=O)COCCOCCNC(=O)COCCOCCNC(=O)CC[C@H](NC(=O)CCCc1ccc(C(C)(C)C)cc1)C(=O)O)C(N)=O [Example 135],> 9950,> 9950,0.936,–,0.271,0.0609,91.2 ± 4.78,92.3 ± 2.64,0.0184,–,–,–,–
CCCCCCCCCCCC(=O)N[C@@H](CCC(=O)NCCOCCOCC(=O)NCCOCCOCC(=O)NCCCC[C@H](NC(=O)[C@H](CCCN)NC(=O)[C@H](CC(=O)O)NC(=O)[C@H](CC(C)C)NC(=O)[C@](C)(CC(C)C)NC(=O)[C@@H](NC(=O)[C@H](CO)NC(=O)[C@H](Cc1ccncc1)NC(=O)[C@H](CC(=O)O)NC(=O)[C@H](CO)NC(=O)[C@@H](NC(=O)[C@](C)(Cc1ccccc1F)NC(=O)[C@@H](NC(=O)CNC(=O)[C@H](CCC(=O)O)NC(=O)C(C)(C)NC(=O)[C@@H](N)Cc1ccc(O)cc1)[C@@H](C)O)[C@@H](C)O)[C@@H](C)CC)C(=O)N[C@@H](C)C(=O)N[C@@H](CCC(N)=O)C(=O)NC(C)(C)C(=O)N[C@@H](CCC(=O)O)C(=O)N[C@@H](Cc1ccccc1)C(=O)N[C@H](C(=O)N[C@@H](CCCCNC(=O)COCCOCCNC(=O)COCCOCCNC(=O)CC[C@H](NC(=O)CCCCCCCCCCC)C(=O)O)C(=O)N[C@@](C)(Cc1ccc(O)cc1)C(=O)N[C@@H](CC(C)C)C(=O)N[C@H](C(=O)N[C@@H](CCC(=O)O)C(=O)NCC(=O)NCC(=O)N1CCC[C@H]1C(=O)N[C@@H](CO)C(=O)N[C@@H](CO)C(=O)NCC(=O)N[C@@H](C)C(=O)N1CCC[C@H]1C(=O)N1CCC[C@H]1C(=O)N1CCC[C@H]1C(=O)N[C@@H](CO)C(N)=O)[C@@H](C)CC)[C@@H](C)CC)C(=O)O [Example 138],–,–,–,–,–,–,–,–,–,> 9950,0.267,–,0.0197
